Source: patent publication US20080103189A1, “PREPARATION AND UTILITY OF SUBSTITUTED INDOLES” (Auspex Pharmaceuticals, Inc., priority 2006, published 2008)

Conditions: topical or ocular, 5 microgram per mL
Protocol: Liver microsomal stability assays were conducted at 1 mg per mL liver microsome protein with an NADPH-generating system in 2% NaHCO3 (2.2 mM NADPH, 25.6 mM glucose 6-phosphate, 6 units per mL glucose 6-phosphate dehydrogenase and 3.3 mM MgCl2). Test compounds were prepared as solutions in 20% acetonitrile-water and added to the assay mixture (final assay concentration 5 microgram per mL) and incubated at 37° C. Final concentration of acetonitrile in the assay were <1%. Aliquots (50 μL) were taken out at times 0, 15, 30, 45, and 60 minutes, and diluted with ice cold acetonitrile (200 μL) to stop the reactions. Samples were centrifuged at 12000 RPM for 10 minutes to precipitate proteins. Supernatants were transferred to microcentrifuge tubes and stored for LC/MS/MS analysis of the degradation half-life of the test compounds.

increase in the degradation half-life as compared to the non-isotopically enriched drug: 20-250%
SMILES: [2H]C([2H])(Cc1c[nH]c2ccc(CS(=O)(=O)N3CCCC3)cc12)N(C)C
